# Assay results published in US11053204B2, “Pyrimidinyloxy benzene derivatives as herbicides” (FMC Corporation, priority 2015, dated 2021).
# Tests used:
# Type in all cases: in vivo
# [1] = tested on: pigweed, palmer (palmer pigweed, Amaranthus palmeri); experiment: Test C preemergence, plant response rating
# [2] = tested on: kochia (Kochia scoparia); experiment: Test C preemergence, plant response rating
# [3] = tested on: johnsongrass (Sorghum halepense); experiment: Test C postemergence, plant response rating; conditions: for Johnsongrass plant response rating: scale 0 to 100 (0 no effect, 100 complete control)
# Summary of the method: (§1)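 Preemergence: seeds sown in loam–sand blend or silt loam and sprayed with test chemicals in a non-phytotoxic surfactant-containing solvent. Postemergence: potted plants at 2–18 cm (1–4-leaf stage) sprayed with the same formulation. After 13–15 d in greenhouse, visual rating versus controls on 0 (no effect) to 100 (complete control) scale.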
# [4] = tested on: windgrass (Apera spica-venti); experiment: Test C postemergence, plant response rating
# Summary of the method: as §1
# [5] = tested on: buckwheat, wild (wild buckwheat, Polygonum convolvulus); experiment: Test C postemergence, plant response rating; conditions: for Buckwheat, Wild plant response rating: scale 0 to 100 (0 no effect, 100 complete control)
# Summary of the method: as §1
# [6] = tested on: wild mustard (Sinapis arvensis); experiment: Test C postemergence, plant response rating; conditions: for Mustard, Wild plant response rating: scale 0 to 100 (0 no effect, 100 complete control)
# Summary of the method: as §1
# [7] = tested on: wild poinsettia (Euphorbia heterophylla); experiment: Test C postemergence, plant response rating; conditions: for Poinsettia, Wild plant response rating: scale 0 to 100 (0 no effect, 100 complete control)
# Summary of the method: as §1
# [8] = tested on: speedwell (bird's-eye speedwell, Veronica persica); experiment: Test C postemergence, plant response rating; conditions: for Speedwell plant response rating: scale 0 to 100 (0 no effect, 100 complete control)
# Summary of the method: as §1
# [9] = tested on: surinam grass (Brachiaria decumbens); experiment: Test C postemergence, plant response rating
# Summary of the method: as §1
# [10] = tested on: field violet (Viola arvensis); experiment: Test C postemergence, plant response rating; conditions: for Field Violet plant response rating: scale 0 to 100 (0 no effect, 100 complete control)
# Summary of the method: as §1
# [11] = tested on: field poppy (Papaver rhoeas); experiment: Test C postemergence, plant response rating; conditions: for Field Poppy plant response rating: scale 0 to 100 (0 no effect, 100 complete control)
# Summary of the method: as §1
# [12] = tested on: nightshade (eastern black nightshade, Solanum ptycanthum); experiment: Test C postemergence, plant response rating; conditions: for Nightshade plant response rating: scale 0 to 100 (0 no effect, 100 complete control)
# Summary of the method: as §1
# [13] = tested on: Canada thistle (Cirsium arvense); experiment: Test C postemergence, plant response rating; conditions: for Canada Thistle plant response rating: scale 0 to 100 (0 no effect, 100 complete control)
# Summary of the method: as §1
# [14] = tested on: pigweed, palmer (palmer pigweed, Amaranthus palmeri); experiment: Test C postemergence, plant response rating; conditions: for Pigweed, Palmer plant response rating: scale 0 to 100 (0 no effect, 100 complete control)
# Summary of the method: as §1
# [15] = tested on: geranium, cutleaf (cutleaf geranium, Geranium dissectum); experiment: Test C postemergence, plant response rating; conditions: for Geranium, Cutleaf plant response rating: scale 0 to 100 (0 no effect, 100 complete control)
# Summary of the method: as §1
# [16] = tested on: galium (catchweed bedstraw, Galium aparine); experiment: Test C preemergence, plant response rating
# [17] = tested on: johnsongrass (Sorghum halepense); experiment: Test C preemergence, plant response rating
# [18] = tested on: windgrass (Apera spica-venti); experiment: Test C preemergence, plant response rating
# [19] = tested on: barnyardgrass (Echinochloa crus-galli); experiment: Test C preemergence, plant response rating; conditions: Preemergence
# [20] = tested on: nightshade (eastern black nightshade, Solanum ptycanthum); experiment: Test C preemergence, plant response rating
# [21] = 125 g ai/ha, scale 0 to 100 (0 no effect, 100 complete control)
compound,measurement,setting,value
CCCCC(=O)c1c(Oc2ncc(Cl)cn2)cccc1C(F)(F)F [Compound 130],"Plant response rating, Pigweed, Palmer","[1]; 31 g ai/ha, scale 0 to 100",75
same,"Plant response rating, Pigweed, Palmer","[1]; 62 g ai/ha, scale 0 to 100",100
same,"Plant response rating, Pigweed, Palmer","[1]; 125 g ai/ha, scale of 0 to 100",85
same,"Plant response rating, Kochia","[2]; 31 g ai/ha, scale 0 to 100",65
same,"Plant response rating, Kochia","[2]; 62 g ai/ha, scale 0 to 100",65
same,"Plant response rating, Kochia","[2]; 125 g ai/ha, scale of 0 to 100",98
same,"Plant response rating, Johnsongrass","[3]; 16 g ai/ha, scale of 0 to 100",5
same,"Plant response rating, Johnsongrass","[3]; 31 g ai/ha, scale 0 to 100",5
same,Johnsongrass plant response rating,[3]; 62 g ai/ha,10
same,Johnsongrass plant response rating,[3]; 125 g ai/ha,15
same,"Plant response rating, Windgrass","[4]; 16 g ai/ha, scale of 0 to 100",10
same,"Plant response rating, Windgrass","[4]; 31 g ai/ha, scale 0 to 100",15
same,Windgrass plant response rating,[4]; [21],35
same,"Plant response rating, Buckwheat, Wild","[5]; 16 g ai/ha, scale of 0 to 100",35
same,"Plant response rating, Buckwheat, Wild","[5]; 31 g ai/ha, scale 0 to 100",90
same,"Buckwheat, Wild plant response rating",[5]; 62 g ai/ha,75
same,"Buckwheat, Wild plant response rating",[5]; 125 g ai/ha,80
same,"Plant response rating, Mustard, Wild","[6]; 16 g ai/ha, scale of 0 to 100",98
same,"Plant response rating, Mustard, Wild","[6]; 31 g ai/ha, scale 0 to 100",90
same,"Mustard, Wild plant response rating",[6]; 62 g ai/ha,100
same,"Mustard, Wild plant response rating",[6]; 125 g ai/ha,100
same,"Plant response rating, Poinsettia, Wild","[7]; 16 g ai/ha, scale of 0 to 100",55
same,"Plant response rating, Poinsettia, Wild","[7]; 31 g ai/ha, scale 0 to 100",70
same,"Poinsettia, Wild plant response rating",[7]; 62 g ai/ha,60
same,"Poinsettia, Wild plant response rating",[7]; 125 g ai/ha,75
same,"Plant response rating, Speedwell","[8]; 16 g ai/ha, scale of 0 to 100",80
same,"Plant response rating, Speedwell","[8]; 31 g ai/ha, scale 0 to 100",85
same,Speedwell plant response rating,[8]; 62 g ai/ha,98
same,Speedwell plant response rating,[8]; 125 g ai/ha,98
same,"Plant response rating, Surinam Grass","[9]; 16 g ai/ha, scale of 0 to 100",10
same,"Plant response rating, Surinam Grass","[9]; 31 g ai/ha, scale 0 to 100",10
same,Surinam Grass plant response rating,[9]; [21],20
same,"Plant response rating, Field Violet","[10]; 16 g ai/ha, scale of 0 to 100",80
same,"Plant response rating, Field Violet","[10]; 31 g ai/ha, scale 0 to 100",85
same,Field Violet plant response rating,[10]; 62 g ai/ha,95
same,Field Violet plant response rating,[10]; 125 g ai/ha,100
same,"Plant response rating, Field Poppy","[11]; 16 g ai/ha, scale of 0 to 100",100
same,"Plant response rating, Field Poppy","[11]; 31 g ai/ha, scale 0 to 100",100
same,Field Poppy plant response rating,[11]; 62 g ai/ha,100
same,Field Poppy plant response rating,[11]; 125 g ai/ha,100
same,"Plant response rating, Nightshade","[12]; 16 g ai/ha, scale of 0 to 100",75
same,"Plant response rating, Nightshade","[12]; 31 g ai/ha, scale 0 to 100",80
same,Nightshade plant response rating,[12]; 62 g ai/ha,85
same,Nightshade plant response rating,[12]; 125 g ai/ha,90
same,"Plant response rating, Canada Thistle","[13]; 16 g ai/ha, scale of 0 to 100",75
same,"Plant response rating, Canada Thistle","[13]; 31 g ai/ha, scale 0 to 100",75
same,Canada Thistle plant response rating,[13]; 62 g ai/ha,98
same,Canada Thistle plant response rating,[13]; 125 g ai/ha,98
same,"Plant response rating, Pigweed, Palmer","[14]; 16 g ai/ha, scale of 0 to 100",35
same,"Plant response rating, Pigweed, Palmer","[14]; 31 g ai/ha, scale 0 to 100",65
same,"Pigweed, Palmer plant response rating",[14]; 62 g ai/ha,45
same,"Pigweed, Palmer plant response rating",[14]; 125 g ai/ha,65
same,"Plant response rating, Geranium, Cutleaf","[15]; 16 g ai/ha, scale of 0 to 100",25
same,"Plant response rating, Geranium, Cutleaf","[15]; 31 g ai/ha, scale 0 to 100",35
same,"Geranium, Cutleaf plant response rating",[15]; 62 g ai/ha,45
same,"Geranium, Cutleaf plant response rating",[15]; 125 g ai/ha,60
same,"Plant response rating, Galium","[16]; 31 g ai/ha, scale 0 to 100",50
same,"Plant response rating, Galium","[16]; 62 g ai/ha, scale 0 to 100",90
same,"Plant response rating, Galium","[16]; 125 g ai/ha, scale of 0 to 100",90
same,"Plant response rating, Johnsongrass","[17]; 31 g ai/ha, scale 0 to 100",10
same,"Plant response rating, Johnsongrass","[17]; 62 g ai/ha, scale 0 to 100",70
same,"Plant response rating, Johnsongrass","[17]; 125 g ai/ha, scale of 0 to 100",85
same,"Plant response rating, Windgrass","[18]; 31 g ai/ha, scale 0 to 100",70
same,"Plant response rating, Windgrass","[18]; 62 g ai/ha, scale 0 to 100",100
same,"Plant response rating, Windgrass","[18]; 125 g ai/ha, scale of 0 to 100",100
C=C(Br)COC(=O)c1c(Br)cccc1Oc1ncc(Cl)cn1 [Compound 61],"Plant response rating, Pigweed, Palmer","[1]; 16 g ai/ha, scale 0 to 100",40
same,"Plant response rating, Pigweed, Palmer","[1]; 31 g ai/ha, scale 0 to 100",50
same,"Plant response rating, Pigweed, Palmer","[1]; 62 g ai/ha, scale 0 to 100",70
same,"Plant response rating, Pigweed, Palmer","[1]; 125 g ai/ha, scale of 0 to 100",75
same,"Plant response rating, Barnyardgrass","[19]; 62 g ai/ha, scale of 0 to 100",50
same,"Plant response rating, Barnyardgrass","[19]; 125 g ai/ha, scale of 0 to 100",65
same,"Plant response rating, Barnyardgrass","[19]; 16 g ai/ha, scale 0 to 100",0
same,"Plant response rating, Barnyardgrass","[19]; 31 g ai/ha, scale 0 to 100",0
same,"Plant response rating, Nightshade","[20]; 16 g ai/ha, scale 0 to 100",60
same,"Plant response rating, Nightshade","[20]; 31 g ai/ha, scale 0 to 100",60
same,"Plant response rating, Nightshade","[20]; 62 g ai/ha, scale 0 to 100",50
same,"Plant response rating, Nightshade","[20]; 125 g ai/ha, scale of 0 to 100",75
same,"Plant response rating, Kochia","[2]; 16 g ai/ha, scale 0 to 100",0
same,"Plant response rating, Kochia","[2]; 31 g ai/ha, scale 0 to 100",5
same,"Plant response rating, Kochia","[2]; 62 g ai/ha, scale 0 to 100",5
same,"Plant response rating, Kochia","[2]; 125 g ai/ha, scale of 0 to 100",30
same,"Plant response rating, Galium","[16]; 16 g ai/ha, scale 0 to 100",0
same,"Plant response rating, Galium","[16]; 31 g ai/ha, scale 0 to 100",0
same,"Plant response rating, Galium","[16]; 62 g ai/ha, scale of 0 to 100",10
same,"Plant response rating, Galium","[16]; 125 g ai/ha, scale of 0 to 100",15
same,"Plant response rating, Johnsongrass","[17]; 16 g ai/ha, scale 0 to 100",0
same,"Plant response rating, Johnsongrass","[17]; 31 g ai/ha, scale 0 to 100",0
same,"Plant response rating, Johnsongrass","[17]; 62 g ai/ha, scale 0 to 100",0
same,"Plant response rating, Johnsongrass","[17]; 125 g ai/ha, scale of 0 to 100",20
same,"Plant response rating, Windgrass","[18]; 16 g ai/ha, scale 0 to 100",0
same,"Plant response rating, Windgrass","[18]; 31 g ai/ha, scale 0 to 100",5
same,"Plant response rating, Windgrass","[18]; 62 g ai/ha, scale 0 to 100",40
same,"Plant response rating, Windgrass","[18]; 125 g ai/ha, scale of 0 to 100",70
